According to PMC2811219 (The Journal of infectious diseases, 2010):
Read-outs that look alike come from different tables or passages of the source.

What was measured:
HIV-2ROD = test: Anti-HIV-2 activity in CEM cells; type: cell-based; conditions: HIV-2ROD-infected CEM cells; data not shown
in vitro = type: cell-based, human; conditions: human
HIV-1 = test: Anti-HIV-1 activity in CEM cell cultures; type: cell-based; conditions: for EC50: read-out: EC50 (CEM), effective concentration that inhibits 50% of HIV-1 replication, CEM cells
[1] = Viability assay in MT-4 cell cultures; type: cell-based, human; conditions: human, MT-4 cells
HSV-2 strain G = test: HSV-2 replication in human tonsillar tissue; type: cell-based; conditions: 1μM, day 12 post infection, n=4
[2] = test system: HIV-1 UG 270, X4 (clade D); test: p24 production in virus-infected PBMC, HIV-1 UG 270; type: cell-based; conditions: read-out: EC50, UG 270
[3] = test system: HIV-1 ETH 2220, R5 (clade C); test: p24 production in virus-infected PBMC, HIV-1 ETH 2220; type: cell-based; conditions: read-out: EC50, ETH 2220
HIV-1 NL4.3 (X4) = test: p24 production in virus-infected PBMC, HIV-1 NL4.3; type: cell-based; conditions: read-out: EC50, NL4.3
HIV-1LAI.04 [4] = test: HIV-1 replication in HIV-1/HSV-2 coinfected tonsillar tissue; type: cell-based; conditions: 1μM, n=5
MT-4 cells [5] = test: MT-4 cell growth / proliferation; type: cell-based, human; conditions: read-out: IC50 (MT-4), concentration that inhibit cell growth by 50%
CEM cells [6] = test: in vitro; type: cell-based, human
HIV-1 BaL (R5) = test: p24 production in virus-infected PBMC, HIV-1 BaL; type: cell-based; conditions: read-out: EC50, BaL
HIV-1 US 3, R5 (clade B) = test: p24 production in virus-infected PBMC, HIV-1 US 3; type: cell-based; conditions: read-out: EC50, US 3
HIV-1BaL = test: HIV-1 replication in human cervicovaginal tissue ex vivo; type: cell-based
HSV-2 (G) = test: HSV-2 replication in HIV-1/HSV-2 coinfected tonsillar tissue; type: cell-based; conditions: 1μM, n=5
[7] = test system: HIV-1 ID12, R5 (clade A/E); test: p24 production in virus-infected PBMC, HIV-1 ID12; type: cell-based; conditions: read-out: EC50, ID12
PBMC = PBMC MTS viability staining; type: cell-based, human
[8] = test system: clinical ACV-resistant HSV-2 isolate; test: ACV-resistant HSV-2 replication in human tonsillar tissue; type: cell-based; conditions: variant without functional thymidine kinase, n=2
HIV-1LAI.04 [9] = test: Anti-HIV-1 activity in MT-4 cell cultures; type: cell-based; conditions: MT-4 cells; for EC50: read-out: EC50 (MT-4), effective concentration that inhibits 50% of HIV-1 replication
[10] = test system: HIV-1 UG275, R5 (clade A); test: p24 production in virus-infected PBMC, HIV-1 UG275; type: cell-based; conditions: read-out: EC50, UG275
CEM cells [11] = test: CEM cell growth; type: cell-based, human; conditions: read-out: IC50 (CEM), concentration that inhibit cell growth by 50%
HIV-1LAI.04 [12] = test: Flow-cytometry of HIV-infected; type: cell-based; conditions: tonsillar tissue, day 12 post infection; control 11.71 ± 3.87%; n=4
HIV-1LAI.04 [13] = test: HIV-1 replication in human tonsillar tissue ex vivo; type: cell-based
MT-4 cells [14] = test: Viability assay in MT-4 cell cultures; type: cell-based, human
[15] = test system: human tonsillar tissue T cells; type: cell-based

Compound: Nc1nc2c(ncn2COCCO)c(=O)[nH]1 [ACV, acyclovir, reference compound]
- suppression of viral replication (HIV-2ROD): did not efficiently suppress viral replication
- CC50 (in vitro): > 150 µM
- suppression of viral replication (HIV-1; HIV-1IIIB-infected CEM cells, data not shown): did not efficiently suppress viral replication
- CC50 [1]: > 150 µM

Compound: C[C@H](NP(=O)(OCCOCn1cnc2c(=O)[nH]c(N)nc21)Oc1ccccc1)C(=O)OCc1ccccc1 (stereo partly shown) [Cf2648]
- suppression of HSV-2 replication (HSV-2 strain G): 99.6 ± 0.3%
- EC50 [2]: 55 ± 40 µM
- EC50 [3]: 19 ± 14 µM
- EC50 (HIV-1 NL4.3 (X4)): 13 ± 3.8 µM
- inhibition of HIV replication in HIV-1/HSV-2 coinfected lymphoid tissue (HIV-1LAI.04 [4]): 81.1 ± 5.9%
- IC50 (MT-4 cells [5]): 34 ± 11 µM
- CC50 (CEM cells [6]): > 150 µM
- EC50 (HIV-1 BaL (R5)): 6.6 ± 1.4 µM
- EC50 (HIV-1 US 3, R5 (clade B)): 28 ± 12 µM
- inhibition of HIV-1 replication, drug removed on day 3 post-infection (HIV-1BaL; cervicovaginal tissue, 1μM, not replenished, n=4): 57.1 ± 16.0%
- inhibition of HIV replication, drug replenished at each medium change (HIV-1BaL; cervicovaginal tissue, 1μM, treated overnight then infected with HIV-1BaL, n=2): 100%
- inhibition of HIV replication on day 12 post-infection, 3-day incubation followed by drug removal (HIV-1BaL; cervicovaginal tissue, 5μM, n=3): 90.3 ± 9.2%
- EC50 (HIV-1): 6.4 ± 5.8 µM
- inhibition of HSV-2 replication in HIV-1/HSV-2 coinfected lymphoid tissue (HSV-2 (G)): 99.6 ± 0.2%
- EC50 [7]: 16 ± 15 µM
- CC50 (PBMC; read-out: CC50, 50% cytostatic concentration, PBMC, MTS viability staining method): 319 µM
- inhibition of replication of ACV-resistant HSV-2 variant [8]: 94.9 ± 5.1%
- SI, selective index or ratio of CC50 (MT-4)/EC50 (HIV-1LAI.04 [9]): > 26
- EC50 (HIV-1LAI.04 [9]): 5.7 ± 1.6 µM
- EC50 [10]: 25 ± 10 µM
- IC50 (CEM cells [11]): 33 ± 7.1 µM

Compound: COC(=O)[C@H](C)NP(=O)(OCCOCn1cnc2c(=O)[nH]c(N)nc21)Oc1cccc2ccccc12 (stereo partly shown) [Cf2649]
- fraction of CD8- T cells HIV-infected (p24+) (HIV-1LAI.04 [12]): 3.16 ± 1.63%
- EC50 [2]: 10 ± 12 µM
- EC50 [3]: 6.8 ± 3.9 µM
- EC50 (HIV-1 NL4.3 (X4)): 11 ± 3.1 µM
- IC50 (MT-4 cells [5]): 19 ± 3.2 µM
- CC50 (CEM cells [6]): > 150 µM
- EC50 (HIV-1 BaL (R5)): 5.2 ± 2.4 µM
- EC50 (HIV-1 US 3, R5 (clade B)): 4.9 ± 6.1 µM
- suppression of HIV replication in tonsillar tissue (HIV-1LAI.04 [13]; 1 μM): completely suppresses HIV replication
- inhibition of HIV-1 replication, treatment started 2 days post-infection (HIV-1LAI.04 [13]; tonsillar tissue, 1μM, n=3): 94.4 ± 5.5%
- inhibition of HIV-1 replication, treatment started 4 days post-infection (HIV-1LAI.04 [13]; tonsillar tissue, 1μM, n=3): 90.2 ± 9.8%
- inhibition of HIV-1 replication, treatment started 6 days post-infection (HIV-1LAI.04 [13]; tonsillar tissue, 1μM, n=3): 54.1 ± 13.5%
- inhibition of HIV-1 replication, treatment started simultaneously with infection (HIV-1LAI.04 [13]; tonsillar tissue, 1μM, n=3): 96.9 ± 3%
- suppression of HIV-1BAL replication in cervicovaginal tissue (HIV-1BaL; 1 μM for 12 days, relative to donor-matched infected tissues, n=4): 75.8 ± 10.4%
- EC50 [7]: 53 ± 4.4 µM
- CC50 (MT-4 cells [14]): > 150 µM
- CC50 (PBMC): 352 µM
- SI, selective index or ratio of CC50 (MT-4)/EC50 (HIV-1LAI.04 [9]): > 32
- EC50 (HIV-1LAI.04 [9]): 4.7 ± 2.1 µM
- EC50 [10]: 16 ± 11 µM
- IC50 (CEM cells [11]): 57 ± 45 µM

Compound: CCOC(=O)[C@H](C)NP(=O)(OCCOCn1cnc2c(=O)[nH]c(N)nc21)Oc1cccc2ccccc12 (stereo partly shown) [Cf2676]
- IC50 (MT-4 cells [5]): 12 ± 5.3 µM
- CC50 (CEM cells [6]): > 150 µM
- EC50 (HIV-1): 12 ± 9.8 µM
- CC50 (MT-4 cells [14]): > 150 µM
- SI, selective index or ratio of CC50 (MT-4)/EC50 (HIV-1LAI.04 [9]): > 88
- EC50 (HIV-1LAI.04 [9]): 1.7 ± 0.8 µM
- IC50 (CEM cells [11]): 32 ± 7.8 µM

Compound: CC(C)OC(=O)[C@H](C)NP(=O)(OCCOCn1cnc2c(=O)[nH]c(N)nc21)Oc1cccc2ccccc12 (stereo partly shown) [Cf2681]
- IC50 (MT-4 cells [5]): 73 µM
- effect on numbers of CD4+ T cells and subsets in treated tissues [15]: did not affect the numbers of these cells
- CC50 (CEM cells [6]): > 150 µM
- EC50 (HIV-1): 6.2 ± 5.4 µM
- CC50 (MT-4 cells [14]): > 150 µM
- SI, selective index or ratio of CC50 (MT-4)/EC50 (HIV-1LAI.04 [9]): > 28
- EC50 (HIV-1LAI.04 [9]): 5.4 µM
- IC50 (CEM cells [11]): 36 ± 15 µM
